Tests used:
Format in all cases: in vivo
[1] = test system: male ostriches which violently behaved, cried and did not take feed; assay: Alleviation of the violence and stimulation of the appetite in male ostrich; details: for Alleviation of the violence and stimulation of the appetite: results compared with 17β-decanoate-4-estren-3-one / Alleviation of the violence and stimulation of the appetite according to administered amount: results compared with 17β-decanoate-4-estren-3-one: male ostrich; for Alleviation of the violence and stimulation of the appetite: results compared with 17β-decanoate-4-estren-3-one: same procedures as Experimental Example 1 (100 kg, intramuscular, 100 mg), Example 1 result: alleviated violence and stimulated appetite; for Alleviation of the violence and stimulation of the appetite according to administered amount: results compared with 17β-decanoate-4-estren-3-one: same procedures as Experimental Example 2 (100 kg, intramuscular, 10 to 1000 mg), Example 2 result: alleviated violence and stimulated appetite at every amount
Source text: (§1) After administration, their behaviors and appetites were observed.

[2] = test system: male dogs which violently behaved, cried and did not take feed; assay: Alleviation of the violence and stimulation of the appetite in male dog; details: male dogs 40 kg, 4, 8, 20, 40, 60, 80, 200 and 400 mg (0.1 to 10 mg per kg), Experimental Example 21, summary of Table 4
Source text: as §1

[3] = test system: male cats which violently behaved, cried and did not take feed; assay: Alleviation of the violence and stimulation of the appetite in male cat; details: male cats 1 kg, 0.1, 0.2, 0.5, 1.0, 1.5, 2.0, 5.0 and 10 mg (0.1 to 10 mg per kg), Experimental Example 23, summary of Table 6
Source text: as §1

[4] = test system: male horses which violently behaved, cried and did not take feed; assay: Alleviation of the violence and stimulation of the appetite in male horse; details: male horses 200 kg, 20, 40, 100, 200, 300, 400, 1000 and 2000 mg (0.1 to 10 mg per kg), Experimental Example 25, summary of Table 8
Source text: as §1

[5] = test system: male goats which violently behaved, cried and did not take feed; assay: Alleviation of the violence and stimulation of the appetite in male goat; details: male goats 40 kg, 4, 8, 20, 40, 60, 80, 200 and 400 mg (0.1 to 10 mg per kg), Experimental Example 27, summary of Table 10
Source text: as §1

[6] = male ostriches 100 kg, 10, 20, 50, 100, 150, 200, 500 and 1000 mg (0.1 to 10 mg per kg), Experimental Example 2, summary of Table 2

SMILES: C[C@]12CC[C@H]3[C@@H](CCC4=CC(=O)CC[C@@H]43)[C@@H]1CC[C@@H]2OC(=O)C1CCCCC1 [17β-cyclohexanecarboxylate-4-estren-3-one]
- Alleviation of the violence and stimulation of the appetite: results compared with 17β-decanoate-4-estren-3-one [1]: the same with the result of the experiment using 17β-decanoate-4-estren-3-one in Experimental Example 1
- Alleviation of the violence and stimulation of the appetite according to administered amount: results compared with 17β-decanoate-4-estren-3-one [1]: the same with the result of the experiment using 17β-decanoate-4-estren-3-one in Experimental Example 2

SMILES: CCCCCCCCCCCC(=O)O[C@H]1CC[C@H]2[C@@H]3CCC4=CC(=O)CC[C@@H]4[C@H]3CC[C@]12C [17β-dodecanoate-4-estren-3-one]
- Alleviation of the violence and stimulation of the appetite: results compared with 17β-decanoate-4-estren-3-one [1]: the same with the result of the experiment using 17β-decanoate-4-estren-3-one in Experimental Example 1
- Alleviation of the violence and stimulation of the appetite according to administered amount: results compared with 17β-decanoate-4-estren-3-one [1]: the same with the result of the experiment using 17β-decanoate-4-estren-3-one in Experimental Example 2

SMILES: C[C@]12CC[C@H]3[C@@H](CCC4=CC(=O)CC[C@@H]43)[C@@H]1CC[C@@H]2OC(=O)CCC1CCCCC1 [17β-cyclohexylpropinoate-4-estren-3-one]
- Alleviation of the violence and stimulation of the appetite: results compared with 17β-decanoate-4-estren-3-one [1]: the same with the result of the experiment using 17β-decanoate-4-estren-3-one in Experimental Example 1

SMILES: C[C@]12CC[C@H]3[C@@H](CCC4=CC(=O)CC[C@@H]43)[C@@H]1CC[C@@H]2OC(=O)c1ccccc1 [17β-benzoate-4-estren-3-one]
- Alleviation of the violence and stimulation of the appetite: results compared with 17β-decanoate-4-estren-3-one [1]: the same with the result of the experiment using 17β-decanoate-4-estren-3-one in Experimental Example 1
- Alleviation of the violence and stimulation of the appetite according to administered amount: results compared with 17β-decanoate-4-estren-3-one [1]: the same with the result of the experiment using 17β-decanoate-4-estren-3-one in Experimental Example 2

SMILES: CCC(=O)O[C@H]1CC[C@H]2[C@@H]3CCC4=CC(=O)CC[C@@H]4[C@H]3CC[C@]12C [17β-propionate-4-estren-3-one]
- Alleviation of the violence and stimulation of the appetite: results compared with 17β-decanoate-4-estren-3-one [1]: the same with the result of the experiment using 17β-decanoate-4-estren-3-one in Experimental Example 1
- Alleviation of the violence and stimulation of the appetite according to administered amount: results compared with 17β-decanoate-4-estren-3-one [1]: the same with the result of the experiment using 17β-decanoate-4-estren-3-one in Experimental Example 2

SMILES: CCCCCCOc1ccc(CCC(=O)O[C@H]2CC[C@H]3[C@@H]4CCC5=CC(=O)CC[C@@H]5[C@H]4CC[C@]23C)cc1 [17β-p-hexyloxyphenylpropionate-4-estren-3-one]
- Alleviation of the violence and stimulation of the appetite: results compared with 17β-decanoate-4-estren-3-one [1]: the same with the result of the experiment using 17β-decanoate-4-estren-3-one in Experimental Example 1
- Alleviation of the violence and stimulation of the appetite according to administered amount: results compared with 17β-decanoate-4-estren-3-one [1]: the same with the result of the experiment using 17β-decanoate-4-estren-3-one in Experimental Example 2

SMILES: C[C@]12CC[C@H]3[C@@H](CCC4=CC(=O)CC[C@@H]43)[C@@H]1CC[C@@H]2O [17β-hydroxy-4-estren-3-one]
- Alleviation of the violence and stimulation of the appetite: results compared with 17β-decanoate-4-estren-3-one [1]: the same with the result of the experiment using 17β-decanoate-4-estren-3-one in Experimental Example 1
- Alleviation of the violence and stimulation of the appetite according to administered amount: results compared with 17β-decanoate-4-estren-3-one [1]: the same with the result of the experiment using 17β-decanoate-4-estren-3-one in Experimental Example 2
- appetite after intramuscular injection [1, 6]: appetite stimulated
- feed intake after administration [1, 6]: increased feed intake
- violence of estrus after intramuscular injection [1, 6]: violence of estrus alleviated
- appetite after intramuscular injection [2]: appetite stimulated
- feed intake after administration [2]: increased feed intake
- violence of estrus after intramuscular injection [2]: violence of estrus alleviated
- appetite after intramuscular injection [3]: appetite stimulated
- feed intake after administration [3]: increased feed intake
- violence of estrus after intramuscular injection [3]: violence of estrus alleviated
- appetite after intramuscular injection [4]: appetite stimulated
- feed intake after administration [4]: increased feed intake
- violence of estrus after intramuscular injection [4]: violence of estrus alleviated
- appetite after intramuscular injection [5]: appetite stimulated
- feed intake after administration [5]: increased feed intake
- violence of estrus after intramuscular injection [5]: violence of estrus alleviated

SMILES: C[C@]12CC[C@H]3[C@@H](CCC4=CC(=O)CC[C@@H]43)[C@@H]1CC[C@@H]2OC(=O)CCc1ccccc1 [17β-phenpropionate-4-estren-3-one]
- Alleviation of the violence and stimulation of the appetite: results compared with 17β-decanoate-4-estren-3-one [1]: the same with the result of the experiment using 17β-decanoate-4-estren-3-one in Experimental Example 1
- Alleviation of the violence and stimulation of the appetite according to administered amount: results compared with 17β-decanoate-4-estren-3-one [1]: the same with the result of the experiment using 17β-decanoate-4-estren-3-one in Experimental Example 2

Reference: patent US20040058898A1, “Pharmaceutical composition for alleviating the violence of a mammal comprising nortestosterone derivatives” (priority 2002, published 2004)
